{"source": "patent US9932572B2", "about": "“Modified Caspase polypeptides and uses thereof” (BELLICUM PHARMACEUTICALS, INC., priority 2013, dated 2018)", "molecules": {"B1": {"name": "N405Q: chimeric modified Caspase-9 polypeptide, SEQ ID NO: 26 (protein)", "chain": "GFGDVGALESLRGNADLAYILSMEPCGHCLIINNVNFCRESGLRTRTGSNIDCEKLRRRFSSLHFMVEVKGDLTAKKMVLALLELARQDHGALDCCVVVILSHGCQASHLQFPGAVYGTDGCPVSVEKIVNIFNGTSCPSLGGKPKLFFIQACGGEQKDHGFEVASTSPEDESPGSNPEPDATPFQEGLRTFDQLDAISSLPTPSDIFVSYSTFPGFVSWRDPKSGSWYVETLDDIFEQWAHSEDLQSLLLRVANAVSVKGIYKQMPGCFQFLRKKLFFKTS"}, "B2": {"name": "D330A: chimeric modified Caspase-9 polypeptide, SEQ ID NO: 24 (protein)", "chain": "B1 chain with D196A, Q271N"}, "B3": {"name": "D330A-N405Q: chimeric modified Caspase-9 polypeptide, double mutant, SEQ ID NO: 28 (protein)", "chain": "B1 chain with D196A"}}, "key": {"[1]": {"conditions": "cited from earlier work"}, "[2]": {"biological_target": "chimeric Caspase-9 polypeptide (Homo sapiens, UniProt P62942, F37V)", "sequence (P62942 2-108 F37V limits assumed)": "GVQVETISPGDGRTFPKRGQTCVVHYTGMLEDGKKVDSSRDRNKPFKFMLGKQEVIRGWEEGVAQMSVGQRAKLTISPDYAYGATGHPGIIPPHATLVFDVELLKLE", "conditions": "cited from earlier work"}, "CD3+ΔCD19+ cells": {"test_system": "CD3+ΔCD19+ cells", "test": "CASPALLO phase 1 clinical trial, AP1903 in patients with GvHD after iCasp9+ T cells", "format": "in vivo, human", "conditions": "after AP1903 administration", "from_the_text": "Three patients received iCasp9+ T cells after haplo-CD34^+ stem cell transplantation (SCT), at dose levels between about 1×10^6 to about 3×10^6 cells/kg."}, "[3]": {"test_system": "iCasp9M.IRES.GFPhigh-transduced CTLs", "test": "SCID mouse-human xenograft model, human CD3+/GFP+ T cells in tumors", "format": "in vivo, NOD/SCID mice", "conditions": "single dose of CID (50 μg AP20187 i.p.) vs carrier; tumors 3 days after", "procedure": "Non-obese diabetic severe combined immunodeficient (NOD/SCID) mice, 6 to 8 weeks of age, were irradiated (250 rad) and injected subcutaneously in the right flank with 10×10^6 to 15×10^6 LCLs resuspended in Matrigel (BD Bioscience). Two weeks later mice bearing tumors that were approximately 0.5 cm in diameter were injected into the tail vein with a 1:1 mixture of nontransduced and iCasp9.I.GFPhigh-transduced EBV CTLs (total 15×10^6). At 4 to 6 hours prior and 3 days after CTL infusion, mice were injected intraperitoneally with recombinant hIL-2 (2000 U; Proleukin; Chiron). On day 4, the mice were randomly segregated in 2 groups: 1 group received CID (50 μg AP20187, intraperitoneally) and 1 group received carrier only (16.7% propanediol, 22.5% PEG400, and 1.25% Tween 80, intraperitoneally). […] By FACS analysis, the number of GFP+ cells within the gated CD3^+ population was evaluated. […]\nThe function of iCasp9M in vivo, is graphically illustrated in FIG. 7. […] On day 3 after CTL administration, mice received either CID (50 μg AP20187; (black diamonds, n=6) or carrier only (black squares, n=5) and on day 6 the presence of human CD3+/GFP+ T cells in the tumors was analyzed. Human CD3+ T cells isolated from the tumors of a control group of mice that received only nontransduced CTLs (15×10^6 CTLs; n=4) were used as a negative control for the analysis of CD3+/GFP+ T cells within the tumors."}, "non-transduced cells": {"test_system": "non-transduced cells", "test": "Viability of non-transduced cells with AP20187", "format": "cell-based, human", "conditions": "non-transduced cells (n=6)", "procedure": "(§1) Suicide gene functionality was assessed by adding a small molecule synthetic homodimerizer, AP20187 (Ariad Pharmaceuticals; Cambridge, Mass.), at 10 nM final concentration the day following CD19 immunomagnetic selection. Cells were stained with annexin V and 7-amino-actinomycin (7-AAD)(BD Pharmingen) at 24 hours and analyzed by flow cytometry. Cells negative for both Annexin V and 7-AAD were considered viable, cells that were annexin V positive were apoptotic, and cells that were both annexin V and 7-AAD positive were necrotic. The percentage killing induced by dimerization was corrected for baseline viability as follows: Percentage killing=100%−(% Viability in AP20187-treated cells÷% Viability in non-treated cells)."}, "[4]": {"test_system": "iCasp9-ΔCD19-transduced MSCs", "test": "In vivo killing of MSCs in SCID mouse model (qPCR)", "design": "species or system SCID mice"}, "[5]": {"test_system": "gene-modified allodepleted cells", "test": "Induction of apoptosis with AP20187 in gene-modified allodepleted cells (annexin V/7-AAD)", "format": "cell-based, human", "procedure": "as §1\nCells were maintained in T cell medium containing 50 U/ml IL-2 until 22 days after transduction. A portion of cells was reactivated on 24-well plates coated with […] OKT3 and 1 μg/ml anti-CD28 (Clone CD28.2, BD Pharmingen, San Jose, Calif.) for 48 to 72 hours. CD19 expression and suicide gene function in both reactivated and non-reactivated cells were measured on day 24 or 25 post transduction."}, "iCasp9-transduced MSCs": {"test_system": "iCasp9-transduced MSCs", "test": "Apoptosis studies in vitro, undifferentiated MSCs (annexin V-PE/7-AAD)", "format": "cell-based, human", "conditions": "magnetically immunoselected iCasp9-CD19-positive cells after exposure to CID", "procedure": "Undifferentiated MSCs. The chemical inducer of dimerization (CID) (AP20187; ARIAD Pharmaceuticals, Cambridge, Mass.) was added at 50 nM to iCasp9-transduced MSCs cultures in complete medium. Apoptosis was evaluated 24 hours later by FACS analysis, after cell harvest and staining with annexin V-PE and 7-AAD in annexin V binding buffer (BD Biosciences, San Diego, Calif.). Control iCasp9-transduced MSCs were maintained in culture without exposure to CID."}, "HEK293T/16 cells": {"test_system": "HEK293T/16 cells", "test": "Secreted alkaline phosphatase (SEAP) reporter-based surrogate killing assay", "format": "cell-based, human", "conditions": "for relative SEAP activity Units (basal activity): no AP1903, higher SEAP = lower basal activity; for basal signaling: compared to iCasp9 WT; for cost of higher IC50 to AP1903: versus unmodified iCasp9", "procedure": "FIG. 45 provides an analysis of SEAP assays. To examine both basal signaling and AP1903-induced activity, 10^6 early-passage HEK293T/16 cells were co-transfected with various amounts of plasmids expressing Caspase-9 mutants along with 500 ng of SEAP reporter plasmid, used as a surrogate marker for cell viability. […] of the mixture was seeded onto each well of a 96-well plate. […] For the assay, 4-MUP was hydrolyzed by SEAP to 4-methylumbelliferon, a metabolite that can be excited at 364 nm and detected at an emission of 448 nm. Because SEAP is used as a marker for cell viability, reduced SEAP readings correspond with increased iCaspase-9 activities.\nEarly passage HEK293T/16 (ATCC, Manassas, Va.) was maintained in IMDM, GlutaMAX™ (Life Technologies, Carlsbad, Calif.) supplemented with 10% FBS, 100 U/mL penicillin, and 100 U/mL streptomycin until transfection in a humidified, 37° C., 5% CO2/95% air atmosphere. Cells in logarithmic-phase growth were transiently transfected with 800 ng to 2 μg of expression plasmid encoding iCasp9 mutants and 500 ng of an expression plasmid encoding SRα promoter driven SEAP per million cells in 15-mL conical tubes. […] GeneJammer® Transfection Reagent at a ratio of 3 μl per ug of plasmid DNA was used to transiently transfect HEK293T/16 in the absence of antibiotics. 100 μl or 2 mL of the transfection mixture was added to each well in 96-well or 6-well plate, respectively.\nBriefly, after 65° C. heat denaturation for 45 minutes to reduce background caused by endogenous (and serum-derived) alkaline phosphatases that are sensitive to heat, 5 μl of supernatants was added to 95 μl of PBS and added to 100 μl of substrate buffer, containing 1 μl of 100 mM 4-methylumbelliferyl phosphate (4-MUP; Sigma, St. Louis, Mo.) re-suspended in 2 M diethanolamine. Hydrolysis of 4-MUP by SEAP produces a fluorescent […] with excitation/emission (355/460 nm), which can be easily measured. Assays were performed in black opaque 96-well plates to minimize fluorescence leakage between wells (FIG. 45)."}, "[6]": {"conditions": "10 nM, 24 hours, day after immunomagnetic selection"}}, "note": "Where a chain is given by its changes, count along the chain named. Numbers in names are those of the source. Like-named read-outs stand apart in the source and are kept apart here."}
{"molecule": "CC[C@H](C(=O)N1CCCC[C@H]1C(=O)O[C@H](CCc1ccc(OC)c(OC)c1)c1cccc(OCC(=O)NCCNC(=O)COc2cccc([C@@H](CCc3ccc(OC)c(OC)c3)OC(=O)[C@@H]3CCCCN3C(=O)[C@@H](CC)c3cc(OC)c(OC)c(OC)c3)c2)c1)c1cc(OC)c(OC)c(OC)c1", "note": "(relative stereo) [AP1903, 2-Piperidinecarboxylic acid, 1-[(2S)-1-oxo-2-(3,4,5-trimethoxyphenyl)butyl]-, 1,2-ethanediylbis[imino(2-oxo-2,1-ethanediyl)oxy-3,1-phenylene[(1R)-3-(3,4-dimethoxyphenyl)propylidene]] ester, [2S-[1(R*),2R*[S*[S*[1(R*),2R*]]]]]-(9CI)]", "values": [{"measurement": "safety / adverse effects in Phase I study", "setting": "[1]; 0.01 mg/kg to 1.0 mg/kg dose range, healthy volunteers, listed as API903", "result": "No serious adverse events"}, {"measurement": "plasma levels, % of maximal concentration", "setting": "[1]; 2 hours post-dose", "result": "~7", "unit": "%"}, {"measurement": "plasma levels, % of maximal concentration", "setting": "[1]; 10 hours post-dose", "result": "~1", "unit": "%"}, {"measurement": "Doses well-tolerated", "setting": "[1]; Phase I study", "result": "up to 1 mg/kg"}, {"measurement": "amount of AP1903 needed in vitro for effective signaling of cells", "setting": "[2]", "result": "10 to 100", "unit": "nM"}, {"measurement": "resolution of skin and liver aGvHD", "setting": "CD3+ΔCD19+ cells", "result": "≤ 24", "unit": "h"}]}
{"molecule": "CC[C@H](C(=O)N1CCCC[C@H]1C(=O)O[C@H](CCc1ccc(OC)c(OC)c1)c1cccc(OCC(=O)NCC(CNC(=O)COc2cccc([C@@H](CCc3ccc(OC)c(OC)c3)OC(=O)[C@@H]3CCCCN3C(=O)[C@@H](CC)c3cc(OC)c(OC)c(OC)c3)c2)CN(C)C)c1)c1cc(OC)c(OC)c(OC)c1", "note": "[AP20187]", "values": [{"measurement": "reduction in the number of human CD3+/GFP+ T cells", "setting": "[3]", "result": "> 99", "unit": "%"}, {"measurement": "viability with AP20187", "setting": "non-transduced cells", "result": "about 86%"}, {"measurement": "proportion of surviving iCasp9-positive cells, % of the original population", "setting": "[4]", "result": 0.7, "unit": "%"}, {"measurement": "AP20187-treated cells remained viable", "setting": "[5]; [6]", "result": "about 5.5%"}, {"measurement": "Killing efficiency after correction for baseline viability", "setting": "[5]; [6]", "result": "about 92.9%"}, {"measurement": "killing efficiency", "setting": "[5]; reactivated, CD25 positive cells", "result": "about 93%"}, {"measurement": "selected cells become apoptotic", "setting": "iCasp9-transduced MSCs", "result": "More than 95%"}]}
{"molecule": "B1", "values": [{"measurement": "relative SEAP activity Units (basal activity)", "setting": "HEK293T/16 cells; 1 μg iCasp9 per million cells", "result": "179081 relative SEAP activity Units"}, {"measurement": "relative SEAP activity Units (basal activity)", "setting": "HEK293T/16 cells; 2 μg iCasp9 per million cells", "result": "175529 relative SEAP activity Units"}, {"measurement": "basal signaling", "setting": "HEK293T/16 cells", "result": "lower basal signaling"}, {"measurement": "cost of higher IC50 to AP1903", "setting": "HEK293T/16 cells", "result": "< 10", "unit": "fold"}]}
{"molecule": "B2", "values": [{"measurement": "relative SEAP activity Units (basal activity)", "setting": "HEK293T/16 cells; 1 μg iCasp9 per million cells", "result": "148928 relative SEAP activity Units"}, {"measurement": "relative SEAP activity Units (basal activity)", "setting": "HEK293T/16 cells; 2 μg iCasp9 per million cells", "result": "136863 relative SEAP activity Units"}, {"measurement": "basal signaling", "setting": "HEK293T/16 cells", "result": "lower basal signaling"}, {"measurement": "cost of higher IC50 to AP1903", "setting": "HEK293T/16 cells", "result": "< 5", "unit": "fold"}]}
{"molecule": "B3", "values": [{"measurement": "relative SEAP activity Units (basal activity)", "setting": "HEK293T/16 cells; 1 μg iCasp9 per million cells", "result": "205772 relative SEAP activity Units"}, {"measurement": "relative SEAP activity Units (basal activity)", "setting": "HEK293T/16 cells; 2 μg iCasp9 per million cells", "result": "174366 relative SEAP activity Units"}, {"measurement": "basal signaling", "setting": "HEK293T/16 cells", "result": "lower basal signaling"}]}
